In publication PMC12191924, “A new naphthalene-based fluorogenic substrate for cytochrome P450 4A11” (Biochemical Journal, 2025):

Key:
CYP2C8 = target: T1, CYP2C8 (Homo sapiens, UniProt P10632); experiment: MONACRA demethylation by recombinant CYP2C8 in Supersomes, high-throughput fluorimetric assay; type: biochemical
T1 construct: purchased Gentest (Huntsville, AL), now a part of Discovery Life Sciences lot 81760; host or cells: insect cells, recombinant baculovirus
T1 sequence (P10632 1-490): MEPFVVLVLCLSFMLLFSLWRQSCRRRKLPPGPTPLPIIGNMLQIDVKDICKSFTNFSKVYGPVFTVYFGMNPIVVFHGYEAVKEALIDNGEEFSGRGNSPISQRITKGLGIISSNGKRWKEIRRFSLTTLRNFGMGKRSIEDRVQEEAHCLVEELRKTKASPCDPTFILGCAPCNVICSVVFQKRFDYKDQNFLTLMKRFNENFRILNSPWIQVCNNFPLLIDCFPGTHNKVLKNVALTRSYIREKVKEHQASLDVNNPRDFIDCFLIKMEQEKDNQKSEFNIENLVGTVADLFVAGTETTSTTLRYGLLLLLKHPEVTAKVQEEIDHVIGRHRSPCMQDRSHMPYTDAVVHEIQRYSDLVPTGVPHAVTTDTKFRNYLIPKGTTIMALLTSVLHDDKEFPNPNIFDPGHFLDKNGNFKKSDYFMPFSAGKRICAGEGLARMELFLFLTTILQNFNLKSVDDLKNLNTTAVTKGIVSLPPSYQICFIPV
Description: (§1) Based on these observations, we developed a high-throughput automated assay applicable for studying SSPs of MONACRA metabolism by microsomal P450 enzymes. In this procedure, the incubation mixtures containing an NADPH-generating system and various substrate concentrations are placed in a multiwell plate and preincubated at 30°C in a thermostated shaker. The reaction is started by adding microsomal suspension to the final concentration of 0.3–1 mg/ml of microsomal protein or 0.02–0.1 µM of recombinant P450 enzymes in Supersomes. Following the incubation for 20 min at 30°C, the reaction is quenched by adding trichloroacetic acid (final concentration […]). After supplementing the wells with Na-glycine buffer (pH 10.4, final concentration 2.1 M), the plates are subjected to scanning the fluorescence spectra with excitation at 375 nm. This assay, which is described in detail in Materials and Methods, allows reliable detection of the concentrations of HONACRA as low as 0.1 µM.
(§2) We used the high-throughput activity assay described above to probe MONACRA metabolism by 16 human microsomal P450 enzymes, namely CYP1A2, CYP2A6, CYP2B6, CYP2C8, CYP2C9, CYP2C19, CYP2D6, CYP2E1, CYP2J2, CYP3A4, CYP3A5, CYP4A11, CYP4F2, CYP4F3A, CYP4F3B, and CYP4F12. […]

CYP4A11 = target: T2, CYP4A11 (Homo sapiens, UniProt Q02928); experiment: MONACRA demethylation by recombinant CYP4A11 in Supersomes, high-throughput fluorimetric assay; type: biochemical; parameters: purchased Gentest (Huntsville, AL), now a part of Discovery Life Sciences lot 2402280; host or cells: insect cells, recombinant baculovirus; settings: Michaelis–Menten fit, ± = confidence interval P=0.05
T2 sequence (Q02928 5-519): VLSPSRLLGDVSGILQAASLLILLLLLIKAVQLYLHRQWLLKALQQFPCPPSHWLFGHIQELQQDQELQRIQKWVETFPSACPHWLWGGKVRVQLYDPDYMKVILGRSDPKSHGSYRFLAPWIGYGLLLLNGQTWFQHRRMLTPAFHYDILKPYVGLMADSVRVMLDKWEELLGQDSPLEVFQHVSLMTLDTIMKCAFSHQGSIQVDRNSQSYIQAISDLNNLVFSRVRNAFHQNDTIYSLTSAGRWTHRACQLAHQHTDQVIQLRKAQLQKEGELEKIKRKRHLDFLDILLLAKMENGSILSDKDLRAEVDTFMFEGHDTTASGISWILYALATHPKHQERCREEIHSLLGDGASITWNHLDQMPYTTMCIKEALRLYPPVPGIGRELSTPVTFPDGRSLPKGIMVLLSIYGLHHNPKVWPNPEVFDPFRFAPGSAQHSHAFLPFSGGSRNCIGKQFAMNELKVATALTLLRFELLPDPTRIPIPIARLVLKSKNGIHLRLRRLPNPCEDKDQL
Description: as §1, §2

**Q.** COc1ccc2cc(C=CC(=O)O)ccc2c1 [MONACRA, 3-(6-methoxynaphthalen-2-yl)acrylic acid] was tested. Which “rate of MONACRA metabolism by CYP2C8” value (CYP2C8) did it give?
**A.** The value was “negligibly small”.

**Q.** And the Vmax (CYP4A11)?
**A.** The Vmax was 66.8 ± 17.5 min⁻¹.
